{"source": "patent US4198506A", "about": "“2-Carboxyalkyl-2,3-dihydro-6-mercapto-s-triazolo[4,3-b]-pyridazin-3-ones” (Bristol-Myers Company, priority 1979, dated 1980)", "key": {"[1]": {"test_system": "Proteus (indole-)", "test": "In vitro activity (geometric mean MIC, serial dilution)", "type": "cell-based", "conditions": "read-out: Geometric Mean MIC"}, "[2]": {"test_system": "Klebsiella sp.", "test": "In vitro activity (geometric mean MIC, serial dilution)", "type": "cell-based", "conditions": "read-out: Geometric Mean MIC"}, "[3]": {"test_system": "Miscellaneous (Salmonella, Shigella, Citrobacter)", "test": "microbe, parasite or virus in culture", "conditions": "read-out: Geometric Mean MIC"}, "[4]": {"test_system": "S. aureus Smith", "test": "In vivo activity (Mice, sc)", "conditions": "several determinations listed; for ED50: Staphylococcus aureus, read-out: PD50", "excerpt": "(§1) |In vivo Activity of BB-[…] and Related Compounds (Mice, sc) | (PD50 (mgm./kg.)"}, "[5]": {"test_system": "E. coli Juhl", "test": "In vivo activity (Mice, sc)", "conditions": "several determinations listed; for ED50: Escherichia coli, read-out: PD50", "excerpt": "as §1"}, "[6]": {"test_system": "Providencia sp.", "test": "In vitro activity (geometric mean MIC, serial dilution)", "type": "cell-based", "conditions": "5 strains, Mueller-Hinton agar, inoculum 10^4 dilution, MIC cutoff 200 mcg./ml., read-out: Geometric Mean MIC"}, "[7]": {"test_system": "E. coli (sensitive)", "test": "In vitro activity (geometric mean MIC, serial dilution)", "type": "cell-based", "conditions": "Escherichia coli, read-out: Geometric Mean MIC"}, "[8]": {"test_system": "rabbits", "test": "Preliminary nephrotoxicity study", "type": "in vivo", "conditions": "two rabbits, 100 mg./kg. intravenously", "description": "A preliminary nephrotoxicity study was carried out by administration of the test compound to a group of two rabbits at 100 mg./kg. intravenously."}, "[9]": {"test_system": "S. pyogenes", "test": "In vitro activity (geometric mean MIC, serial dilution)", "type": "cell-based", "conditions": "Streptococcus pyogenes; 10 strains; Mueller-Hinton agar, inoculum 10^4 dilution; MIC cutoff 200 mcg./ml."}, "[10]": {"test_system": "S. aureus (Methicillin-R)", "test": "In vitro activity (geometric mean MIC, serial dilution)", "type": "cell-based", "conditions": "Staphylococcus aureus; 15 strains; Mueller-Hinton agar, inoculum 10^4 dilution; MIC cutoff 200 mcg./ml."}, "[11]": {"test_system": "Proteus (indole +, cephalosporinase +)", "test": "In vitro activity (geometric mean MIC, serial dilution)", "type": "cell-based", "conditions": "5 strains; Mueller-Hinton agar, inoculum 10^4 dilution; MIC cutoff 200 mcg./ml.; read-out: Geometric Mean MIC"}, "[12]": {"test_system": "D. pneumoniae", "test": "In vitro activity (geometric mean MIC, serial dilution)", "type": "cell-based", "conditions": "Streptococcus pneumoniae; 9 strains; Mueller-Hinton agar, inoculum 10^4 dilution; MIC cutoff 200 mcg./ml."}, "[13]": {"test_system": "S. marcescens", "test": "In vitro activity (geometric mean MIC, serial dilution)", "type": "cell-based", "conditions": "Serratia marcescens; 16 strains; Mueller-Hinton agar, inoculum 10^4 dilution; MIC cutoff 200 mcg./ml.; read-out: Geometric Mean MIC"}, "[14]": {"test_system": "S. aureus penicillinase+)", "test": "In vitro activity (geometric mean MIC, serial dilution)", "type": "cell-based", "conditions": "Staphylococcus aureus, read-out: Geometric Mean MIC"}, "[15]": {"test_system": "E. coli (Penicillinase +)", "test": "In vitro activity (geometric mean MIC, serial dilution)", "type": "cell-based", "conditions": "Escherichia coli; 7 strains; Mueller-Hinton agar, inoculum 10^4 dilution; MIC cutoff 200 mcg./ml.; read-out: Geometric Mean MIC"}, "[16]": {"test_system": "S. aureus (sensitive)", "test": "In vitro activity (geometric mean MIC, serial dilution)", "type": "cell-based", "conditions": "Staphylococcus aureus, read-out: Geometric Mean MIC"}, "[17]": {"test_system": "Enterobacter (sensitive)", "test": "In vitro activity (geometric mean MIC, serial dilution)", "type": "cell-based", "conditions": "3 strains, Mueller-Hinton agar, inoculum 10^4 dilution, MIC cutoff 200 mcg./ml., read-out: Geometric Mean MIC"}, "[18]": {"test_system": "Enterobacter (Cephalosporinase +)", "test": "In vitro activity (geometric mean MIC, serial dilution)", "type": "cell-based", "conditions": "7 strains, Mueller-Hinton agar, inoculum 10^4 dilution, MIC cutoff 200 mcg./ml."}, "[19]": {"test_system": "Proteus (indole +)", "test": "In vitro activity (geometric mean MIC, serial dilution)", "type": "cell-based", "conditions": "read-out: Geometric Mean MIC"}, "[20]": {"test_system": "51 gram-positive and 96 gram-negative bacteria", "test": "In vitro activity against 147 test organisms (overall comparison)", "type": "cell-based", "conditions": "compared with BB-S483 and BB-S469, respectively", "description": "The MIC's were determined by the serial dilution method using Mueller-Hinton agar against 51 gram-positive and 96 gram-negative bacteria. The 147 test organisms were classified into 16 groups according to the genera and the types of antibiotic resistance, 5 groups for gram-positive and 11 for gram-negative bacteria."}}, "note": "Where “and” joins values, the source holds several entries; their conditions need not be identical. Identical values can stand only once. Like-named read-outs stand apart in the source and are kept apart here."}
{"smiles": "NCc1ccccc1CC(=O)N[C@@H]1C(=O)N2C(C(=O)O)=C(CSc3ccc4nn(CC(=O)O)c(=O)n4n3)CS[C@H]12", "note": "[BB-S469]", "values": [{"measurement": "MIC", "setting": "[1]; 6 strains, Mueller-Hinton agar, inoculum 10^4 dilution, MIC cutoff 200 mcg./ml.", "result": 0.6, "unit": "µg/mL"}, {"measurement": "MIC", "setting": "[2]", "result": 0.9, "unit": "µg/mL"}, {"measurement": "MIC", "setting": "[3]", "result": 0.7, "unit": "µg/mL"}, {"measurement": "ED50", "setting": "[4]", "result": 0.19, "unit": "mg/kg"}, {"measurement": "PD50", "setting": "[4]", "result": "0.16 mgm./kg. and 0.29 mgm./kg. and 0.2 mgm./kg."}, {"measurement": "ED50", "setting": "[5]", "result": 0.19, "unit": "mg/kg"}, {"measurement": "PD50", "setting": "[5]", "result": "0.24 mgm./kg. and 0.15 mgm./kg."}, {"measurement": "MIC", "setting": "[6]", "result": 4.2, "unit": "µg/mL"}, {"measurement": "MIC", "setting": "[7]", "result": 0.3, "unit": "µg/mL"}, {"measurement": "nephrotoxic potential", "setting": "[8]", "result": "little nephrotoxic potential"}, {"measurement": "MIC", "setting": "[9]", "result": 0.05, "unit": "µg/mL"}, {"measurement": "MIC", "setting": "[10]", "result": 30, "unit": "µg/mL"}, {"measurement": "MIC", "setting": "[11]", "result": 11, "unit": "µg/mL"}, {"measurement": "MIC", "setting": "[12]", "result": 0.03, "unit": "µg/mL"}, {"measurement": "MIC", "setting": "[13]", "result": 130, "unit": "µg/mL"}, {"measurement": "MIC", "setting": "[14]", "result": 1.2, "unit": "µg/mL"}, {"measurement": "MIC", "setting": "[15]", "result": 11, "unit": "µg/mL"}, {"measurement": "MIC", "setting": "[16]", "result": 0.4, "unit": "µg/mL"}, {"measurement": "MIC", "setting": "[17]", "result": 1, "unit": "µg/mL"}, {"measurement": "MIC", "setting": "[18]", "result": 4.7, "unit": "µg/mL"}, {"measurement": "MIC", "setting": "[19]", "result": 0.5, "unit": "µg/mL"}]}
{"smiles": "CNCc1ccsc1CC(=O)N[C@@H]1C(=O)N2C(C(=O)O)=C(CSc3ccc4nn(CC(=O)O)c(=O)n4n3)CS[C@H]12", "note": "[BB-S472, 7-(3-Methylaminomethyl-2-thienylacetamido)-3-(2-carboxymethyl-2,3-dihydro-s-triazolo[4,3-b]pyridazin-3-on-6-ylthiomethyl)-3-cephem-4-carboxylic Acid]", "values": [{"measurement": "MIC", "setting": "[1]", "result": 0.3, "unit": "µg/mL"}, {"measurement": "MIC", "setting": "[2]; 12 strains, Mueller-Hinton agar, inoculum 10^4 dilution, MIC cutoff 200 mcg./ml.", "result": 0.8, "unit": "µg/mL"}, {"measurement": "MIC", "setting": "[3]", "result": 0.4, "unit": "µg/mL"}, {"measurement": "ED50", "setting": "[4]", "result": 0.12, "unit": "mg/kg"}, {"measurement": "ED50", "setting": "[5]", "result": 0.19, "unit": "mg/kg"}, {"measurement": "MIC", "setting": "[6]", "result": 4.8, "unit": "µg/mL"}, {"measurement": "MIC", "setting": "[7]; 13 strains, Mueller-Hinton agar, inoculum 10^4 dilution, MIC cutoff 200 mcg./ml.", "result": 0.2, "unit": "µg/mL"}, {"measurement": "MIC", "setting": "[9]", "result": 0.05, "unit": "µg/mL"}, {"measurement": "MIC", "setting": "[10]", "result": 58, "unit": "µg/mL"}, {"measurement": "MIC", "setting": "[11]", "result": 8.3, "unit": "µg/mL"}, {"measurement": "MIC", "setting": "[12]", "result": 0.05, "unit": "µg/mL"}, {"measurement": "MIC", "setting": "[13]", "result": 200, "unit": "µg/mL"}, {"measurement": "overall in vitro activity vs. non-N-methylated analogs", "setting": "[20]", "result": "better overall activity than their non-N-methylated analogs"}, {"measurement": "MIC", "setting": "[14]", "result": 0.9, "unit": "µg/mL"}, {"measurement": "MIC", "setting": "[15]", "result": 15, "unit": "µg/mL"}, {"measurement": "MIC", "setting": "[16]", "result": 0.4, "unit": "µg/mL"}, {"measurement": "MIC", "setting": "[17]", "result": 1.3, "unit": "µg/mL"}, {"measurement": "MIC", "setting": "[18]", "result": 3.2, "unit": "µg/mL"}, {"measurement": "MIC", "setting": "[19]", "result": 0.3, "unit": "µg/mL"}]}
